Data on 14 substances can be found in patent publication US20220280594A1, “APPLICATION OF POLYPEPTIDE OR DERIVATIVE THEREOF” (CHENGDU HUITAI BIOMEDICINE CO., LTD., priority 2019, published 2022).

The subject of assay [1] is human non-small cell lung cancer cells (A549). The experiment in a line: scratch assay, migration of A549 cells. The following applies: A549, 10 μM, 48 hours; control group 75.31 ± 8.19. It counts as cell-based. As to the method: (§1) In the scratch assay, the cell migration rate was negatively correlated with the inhibitory effect of the drug component on tumor cell migration ability. The cell migration inhibition experiment was described as follows: tumor cells were cultured in vitro, cells in logarithmic growth phase were collected and seeded evenly in a 24-well plate at a density of 1-2×10^5 cells/well; the cells were cultured in a cell incubator until a monolayer was formed; a scratch tool was used to make a “-” (straight) scratch on the monolayer of cells; the cells were washed 1-3 times with PBS, and a medium (with 2% fetal bovine serum) containing specific test components was added to the culture. Experimental grouping: PBS control group; polypeptide or derivative thereof treatment group (N1-N54), 10 μM. Three independent parallel wells were set up in each group, and the cells were cultured continuously in a cell incubator for 48 hours. […] At least 3 representative images for each well were taken. ImageJ software was used to count the migration distance of the cells, and the cell migration rate was calculated as: cell migration rate (%)=(width of original scratch−width of current scratch)/width of original scratch×100.
This example was a scratch assay to evaluate the inhibitory effect of the polypeptide or derivative thereof (N1-N54) on the migration ability of human non-small cell lung cancer (A549). The experimental method was as described in Example 2.

Assay [2] deals with human lung cancer cells (95D). The assay is described as follows: scratch assay, migration of 95D cells. It counts as cell-based. The following applies: 10 μM, 48 hours, control group 55.3 ± 3.19. The procedure:
as §1
This example was a scratch assay to evaluate the inhibitory effect of the polypeptide or derivative thereof (N1-N54) on the migration ability of human lung cancer cells (95D). The experimental method was as described in Example 2.

In assay [3] the test system is human liver adenocarcinoma cells (SK-HEP-1). The assay is described as follows: transwell migration assay, SK-HEP-1 cells. The settings on record: SK-HEP-1 transwell migration, 10 μM, 24 hours; control group 1 782 ± 108, control group 2 768 ± 86. It counts as cell-based. As to the method:
The Transwell chamber system was used in the transwell cell migration experiment. The chamber has an upper layer and a lower layer, which are separated by an artificial semipermeable membrane in the middle. Cells that have migrated through the semi-permeable membrane will attach to the lower surface of the semi-permeable membrane. The migration ability is evaluated by counting the number of cells on the lower surface of the semi-permeable membrane. The number of cells that have migrated is negatively correlated with the inhibitory effect of the drug on the migration ability of the tumor cells. Transwell migration assay was performed as follows: tumor cells were cultured in vitro, cells in logarithmic growth phase were collected, and cell suspension was prepared with fresh serum-free medium at a density of 2-3×10^5 cells/mL. Cells were inoculated, 100 μL/well cell suspension (serum-free medium) in the upper chamber and 600 μL/well complete culture medium in the lower chamber. After incubated in 37° C., 5% CO2 incubator for 4-5 hours, serum-free medium (100 μL/well) was added to the control group, and serum-free medium containing polypeptide or derivative thereof (N1-N54) was added to the upper chamber of the treatment group (100 μL/well), the final concentration of the peptide or derivative thereof in the upper chamber was 10 μM. The cells were incubated continuously for 24 hours, and then fixed with methanol and stained with crystal violet. Images were taken under a microscope and the number of migrated cells was counted with ImageJ.
This example was a transwell cell migration experiment to evaluate the inhibitory effect of the polypeptide or derivative thereof (N1-N54) on the migration ability of human liver adenocarcinoma cells (SK-HEP-1). The experimental method was as described in Example 3.

For assay [4], the system named is human lung cancer cells (A549) subcutaneous xenograft. The assay is described as follows: lung cancer subcutaneous xenograft animal model, intratumoral injection. The following applies: intratumoral 5 mg/kg once every other day, 20 days; for Weight of tumor (g) (mean ± SD): control 1.92 ± 0.13; for Volume of tumor (mm^3) (mean ± SD): control 1700.16 ± 305.72. It counts as in vivo, mice (BALB/c-nu/nu). As to the method:
Experimental animals: 4-6 weeks old female immunodeficiency mice (BALB/c-nu/nu, Beijing Vital River Laboratory Animal Technology Co., Ltd.).
Subcutaneous xenograft animal model. The number of cells inoculated subcutaneously vin mice was about 2×10^6/200 μL. When the volume of the subcutaneous tumor was greater than 100 mm^3, the mice were randomly divided into groups and subjected to treatment. When the mass volume of the tumors in model control group reached 2000 mm^3 or the animal dies, the treatment ended. The animals were dissected, the tumors were taken out, and the weight and volume of the tumors were measured. During the period of the entire experiment, the mice were observed and the body weight was measured every other day.
The method used for the drug efficacy test in the animal model of the subcutaneous xenograft derived from lung cancer cells was as described in Example 5. The tumor cells were human lung cancer cells (A549), and the route of administration was intratumoral injection. There were two groups: the model control group and the polypeptide or its derivative treatment group (N1-N12). The drug dosage of the treatment group was 5 mg/kg, once every other day and the treatment time was 10 days.
The procedure of the efficacy test in this example, route and dosage of administration were the same as in Example 9. The peptides used in the experiment were N13-N32. The treatment time was 20 days.

Ends that are not written are not given here. PEG = not defined here

As for “N13: SEQ ID NO: 1 with deletion of positions 15-18 and positions 1-5 (LAKENVTQD)”, the “Migration rate (%) (mean ± SD, P)” value in assay [1] is recorded as 19.37 ± 9.40,** %. Besides, the “Migration rate (%) (mean ± SD, P)” value in assay [2] is recorded as 21.2 ± 4.41,*** %. The “Number of cells (mean ± SD, P), migrated cells” value (“Number of cells (mean ± SD, P)” for short) in assay [3] is 25 ± 12,****. Further, in assay [4], the “Weight of tumor (g) (mean ± SD)” value is listed as 1.09 ± 0.09 g and the “Volume of tumor (mm^3) (mean ± SD)” value is 986.7 ± 261.02 mm^3.
As for “N14: SEQ ID NO: 1 with deletion of positions 1-5 and addition of one amino acid at the carboxyl terminal (LAKENVTQDAEDNC)”, in assay [1], the “Migration rate (%) (mean ± SD, P)” value is reported as 15.27 ± 8.75,*** %. Further, the “Migration rate (%) (mean ± SD, P)” value in assay [2] is recorded as 32.55 ± 5.71,** %. In addition, in assay [3], the “Number of cells (mean ± SD, P)” value is 61 ± 14,****. For the same substance, in assay [4], the “Weight of tumor (g) (mean ± SD)” value was 1.09 ± 0.29 g and the “Volume of tumor (mm^3) (mean ± SD)” value came out at 913.68 ± 219.62 mm^3.
In the same order, the values of “N15: SEQ ID NO: 1 with substitution N18R and addition of one amino acid to the carboxyl terminal (YRVRFLAKENVTQDAEDRC)” are 14.98 ± 9.09,** %, 24.09 ± 6.40,** %, 131 ± 10,****, 0.63 ± 0.13 g and 793.32 ± 173.3 mm^3.
Turning to “N16: SEQ ID NO: 1 with substitution A7R and addition of one amino acid at the carboxyl terminus (YRVRFLRKENVTQDAEDNC)”, the “Migration rate (%) (mean ± SD, P)” value is 30.57 ± 5.41,** % in assay [1] and 17.00 ± 8.00,** % in assay [2]. Further, in assay [3], the “Number of cells (mean ± SD, P)” value is on record as 74 ± 18,****. In assay [4], the “Weight of tumor (g) (mean ± SD)” value worked out at 0.83 ± 0.27 g. Besides, the “Volume of tumor (mm^3) (mean ± SD)” value in assay [4] is reported as 897.27 ± 176.16 mm^3.
On the same counts, the results for “N17: SEQ ID NO: 1 with addition of two amino acids to the carboxyl terminal (YRVRFLAKENVTQDAEDNCT)” are 18.31 ± 9.26,** %, 18.31 ± 8.26,** %, 50 ± 5,****, 0.76 ± 0.26 g and 893.18 ± 234.75 mm^3.
For “N18: SEQ ID NO: 1 with addition of one amino acid at the amino terminal and one at the carboxyl terminal (FYRVRFLAKENVTQDAEDNC)”, in assay [1], the “Migration rate (%) (mean ± SD, P)” value is on record as 55.71 ± 4.05,* %. Moreover, the “Migration rate (%) (mean ± SD, P)” value in assay [2] was 25.71 ± 4.05,*** %. Besides, in assay [3], the “Number of cells (mean ± SD, P)” value is recorded as 96 ± 28,****. For the same substance, in assay [4], the “Weight of tumor (g) (mean ± SD)” value was 0.75 ± 0.26 g and the “Volume of tumor (mm^3) (mean ± SD)” value was 969.37 ± 243.04 mm^3.
Turning to “N19: SEQ ID NO: 1 with deletion of positions 1-5 and 15-18 and addition of two amino acids at the carboxyl terminal (LAKENVTQDRC)”, the “Migration rate (%) (mean ± SD, P)” value in assay [1] is 53.74 ± 5.46,* %. Besides, the “Migration rate (%) (mean ± SD, P)” value in assay [2] is on record as 42.04 ± 5.90,* %. In assay [3], the “Number of cells (mean ± SD, P)” value was 82 ± 6,****. In assay [4], the “Weight of tumor (g) (mean ± SD)” value came out at 0.81 ± 0.29 g and the “Volume of tumor (mm^3) (mean ± SD)” value was found to be 963.18 ± 185.31 mm^3.
With “N20: SEQ ID NO: 1 with addition of one amino acid at the amino terminal and deletion of position 18 (RYRVRFLAKENVTQDAED)”, the “Migration rate (%) (mean ± SD, P)” value in assay [1] is 55.77 ± 5.06,* %. The “Migration rate (%) (mean ± SD, P)” value in assay [2] is listed as 43.15 ± 5.46,* %. Moreover, the “Number of cells (mean ± SD, P)” value in assay [3] is given as 299 ± 35,****. Also, in assay [4], the “Weight of tumor (g) (mean ± SD)” value is on record as 0.89 ± 0.22 g and the “Volume of tumor (mm^3) (mean ± SD)” value is reported as 1037.56 ± 256.6 mm^3.
On the same counts, the results for “N21: SEQ ID NO: 1 with deletion of positions 1-5 and 15-18 and addition of one amino acid at the amino terminal (SLAKENVTQD)” are 31.06 ± 4.94,** %, 40.02 ± 4.20,** %, 34 ± 7,****, 0.9 ± 0.28 g and 967.35 ± 247.89 mm^3.
For “N22: SEQ ID NO: 1 with substitution A7R, deletion of three amino acids at the amino terminal and of positions 15-18 (RFLRKENVTQD)”, the “Migration rate (%) (mean ± SD, P)” value in assay [1] is reported as 33.59 ± 5.62,** %. In assay [2], the “Migration rate (%) (mean ± SD, P)” value is 38.35 ± 5.04,** %. Besides, the “Number of cells (mean ± SD, P)” value in assay [3] is 42 ± 17,****. Moreover, in assay [4], the “Weight of tumor (g) (mean ± SD)” value is given as 0.83 ± 0.33 g and the “Volume of tumor (mm^3) (mean ± SD)” value came to 835.73 ± 184.67 mm^3.
In the same order, the values of “N23: SEQ ID NO: 1 with substitution A7R, deletion of position 11 and of positions 15-18 (YRVRFLRKENTQDAED)” are 26.03 ± 4.21,*** %, 30.38 ± 4.68,** %, 276 ± 24,****, 0.83 ± 0.29 g and 838.73 ± 218 mm^3.
Consider “N24: SEQ ID NO: 1 with substitution A7R, deletion of positions 1-2 and of position 18 (VRFLRKENVTQDAED)”, for which the “Migration rate (%) (mean ± SD, P)” value in assay [1] is on record as 31.05 ± 3.60,** %. In assay [2], the “Migration rate (%) (mean ± SD, P)” value is recorded as 35.78 ± 4.79,** %. Also, the “Number of cells (mean ± SD, P)” value in assay [3] is 265 ± 24,****. Besides, in assay [4], the “Weight of tumor (g) (mean ± SD)” value was 0.83 ± 0.29 g and the “Volume of tumor (mm^3) (mean ± SD)” value is listed as 908.37 ± 256.24 mm^3.
In the same order, the values of “N25: SEQ ID NO: 1 with substitution N18R and addition of two amino acids at the carboxyl terminal (YRVRFLAKENVTQDAEDRCT)” are 34.66 ± 7.73,** %, 40.70 ± 3.25,** %, 58 ± 15,****, 0.71 ± 0.18 g and 958.87 ± 351.9 mm^3.
Regarding “N54: SEQ ID NO: 1 with A7R, addition of two amino acids and PEG modification at the carboxyl terminal (YRVRFLRKENVTQDAEDNTC-{PEG}; reading uncertain)”, the results for the “Migration rate (%) (mean ± SD, P)” value in assay [1] and in assay [2] were 54.66 ± 4.73,* % and 24.66 ± 6.13,** %, respectively. Further, the “Number of cells (mean ± SD, P)” value in assay [3] is 345 ± 3,****.
